Data from patent US20240262822A1, “WDR5 INHIBITORS AND MODULATORS” (Vanderbilt University, priority 2021, published 2024).
Where two headings read alike, the source gives them in different places.

How the values were obtained:
[1] = tested on: MV4:11 human cancer cell lines; experiment: Cellular viability / anti-proliferative activity, CellTiter-Glo, 5 day protocol; format: cell-based; details: Homo sapiens, 5 day incubation
Description: Anti-proliferative activity using MLL-harboring cell lines. MV-4-11 and K562 cells are grown in IMDM media supplemented with 10% FBS and 1% penicillin/streptomycin, Molm-13 cells are cultured in RPMI-1640 media supplemented with 10% FBS and 1% penicillin/streptomycin. Viability assays are performed by dispensing 200 cells at 7200 cells/mL into each well of an opaque 384-well plate and adding compounds at the indicated concentrations in a final volume of 32 μL and a final concentration of DMSO of 0.3% for all samples. A certain range of compound concentrations is made through a series of 2-fold dilutions starting 30 μM at the highest, total 22 dilutions. After a set incubation period, 5 day protocol, the viability of cells in each well is assessed using the CellTiter-Glo assay (Promega), read on a 96 Microplane Luminometer (Cytation 3, BioTek). Serial dilutions of each cell type are performed in all assays to generate standard curves and the final densities of cells are determined within the dynamic range of the instrument. GI50 values are calculated based on XLfit software (IDBS, Guildford, UK) with Sigmoidal Dose-Response Model. Each compound is tested in minimum of two replicates. Data are expressed as mean.

[2] = molecular target: T1, WDR5 (Homo sapiens, UniProt P61964); experiment: Time Resolved-Fluorescence Energy Transfer (TR-FRET) competition assay, displacement of 10mer-Thr-FAM probe from His-tagged WDR5; format: binding; details: WDR5-His tag 2 nM, 10mer-Thr-FAM 150 nM, 60 minutes at room temperature
T1 construct: WDR5-His Tag (A23, residues 24-334) is expressed and purified in our lab; made in house
From the text: Excess 10mer-Thr-FAM probe was utilized with His-tagged WDR5 in conjunction with a commercial anti-His antibody containing a Terbium label. The LanthaScreen™ Elite Tb-anti-HIS Antibody from ThermoFisher Scientific was used for this purpose. This Tb-anti-HIS has an excitation/emission of 340 nm and 490 nm, respectively. The 10mer-Thr-FAM probe when bound to WDR5 will undergo a FRET interaction with the Tb-anti-HIS and emit at 520 nm. […] WDR5-His Tag (A23, residues 24-334) is expressed and purified in our lab in sufficient quantities for screening. 10mer-Thr-FAM peptide is used at 150 nM. WDR5-His tag protein is used at 2 nM. A source plate is prepared using an Echo Liquid Handler, which distributes the compounds to the assay plate (white, flat-bottom; OptiPlate) in a 10-point, 5-fold dilution schemes with a top concentration of 5 μM, in a final volume of 20 μL. A final target (WDR5)/Tb-Ab concentration of 2 nM/1 nM is dispensed from appropriate stock solutions, respectively. The final DMSO concentration in each well of the assay plate is 1% or lower. The plate is covered, shielded from light, and incubated for 60 minutes at room temperature with rocking. 10mer-Thr-FAM and Anti-His terbium antibody fluorescence is then measured on a Biotek Cytation 3 at excitation wavelength of 340 nm, and emission wavelengths of 495 nm and 520 nm. Working buffer conditions contain 1× Phosphate Buffered Saline, 300 mM NaCl, 0.5 mM TCEP, 0.1% CHAPS, at pH 7.2. TR-FRET signal is plotted and IC50 and Ki values are calculated according to the formula of Wang Z. FEBS Lett (1996) 3, 245.
where […] is the concentration of the free inhibitor at 50% inhibition, [L]50 is the concentration of the free labeled ligand at 50% inhibition, [P]0 is the concentration of the free protein at 0% inhibition, Kd represents the dissociation constant of the FITC-MLL or 10mer-Thr-FAM probe for WDR5. Total fluorescence is also measured, to rule out compounds that are inherently fluorescent or able to act as quenchers in the assay. TR-FRET binding assay

[3] = MV4-11, 120 h, MV4:11 cells, read-out: GI50 for representative compounds on cellular proliferation of MV4:11 human cancer cell lines
[4] = read-out: Ki for Exemplified Compounds for Inhibition of WDR5 by TR-FRET assay
[5] = MV4-11, 120 h, MV4;11 cells, read-out: GI50 for additional WDR5 inhibitor compounds on cellular proliferation of MV4;11 human cancer cell lines
[6] = 120 h, MV4;11 cells, read-out: GI50 for additional WDR5 inhibitor compounds on cellular proliferation of MV4;11 human cancer cell lines

Work on `CCc1cc(C(=O)NC)c2nccc(N3CCc4c(cc(Cn5ccnc5C)cc4-c4cn(C)nc4C(F)(F)F)C3=O)c2c1` [Example 5, 6-Ethyl-N-methyl-4-(7-((2-methyl-1H-imidazol-1-yl)methyl)-5-(1-methyl-3-(trifluoromethyl)-1H-pyrazol-4-yl)-1-oxo-3,4-dihydroisoquinolin-2(1H)-yl)quinoline-8-carboxamide] yielded a GI50 [1, 3] of under 20 nM and a Ki [2, 4] of under 0.02 nM.
In the case of `CCc1cc(OC)c2ncnc(N3CCc4c(cc(Cn5ccnc5)cc4-c4cn(C)nc4C(F)(F)F)C3=O)c2c1` [Example 27, 7-((1H-imidazol-1-yl)methyl)-2-(6-ethyl-8-methoxyquinazolin-4-yl)-5-(1-methyl-3-(trifluoromethyl)-1H-pyrazol-4-yl)-3,4-dihydroisoquinolin-1(2H)-one], the GI50 [1, 3] is reported as under 20 nM and the Ki [2, 4] is reported as under 0.02 nM.
`CCc1cc(OC)c2nncc(N3CCc4c(cc(Cn5ccnc5)cc4-c4cn(C)nc4C(F)(F)F)C3=O)c2c1` [Example 13, 7-((1H-Imidazol-1-yl)methyl)-2-(6-ethyl-8-methoxycinnolin-4-yl)-5-(1-methyl-3-(trifluoromethyl)-1H-pyrazol-4-yl)-3,4-dihydroisoquinolin-1(2H)-one] showed a GI50 [1, 3] of under 20 nM and a Ki [2, 4] of under 0.02 nM.
`CNc1nc(N2CCc3c(cc(Cn4ccnc4)cc3-c3cn(C)nc3C(F)(F)F)C2=O)c2cc(OC)c(OC)cc2n1` [Example 57, 7-((1H-Imidazol-1-yl)methyl)-2-(6,7-dimethoxy-2-(methylamino)quinazolin-4-yl)-5-(1-methyl-3-(trifluoromethyl)-1H-pyrazol-4-yl)-3,4-dihydroisoquinolin-1(2H)-one] gave a GI50 [1, 3] of 24 nM and a Ki [2, 4] of 0.023 nM.
With `CCc1cc2c(N3CCc4c(cc(Cn5ccnc5)cc4-c4cn(C)nc4C(F)(F)F)C3=O)ccnc2c(CC)n1` [Example 37, 7-((1H-Imidazol-1-yl)methyl)-2-(6,8-diethyl-1,7-naphthyridin-4-yl)-5-(1-methyl-3-(trifluoromethyl)-1H-pyrazol-4-yl)-3,4-dihydroisoquinolin-1(2H)-one] the GI50 [1, 3] was 96 nM and the Ki [2, 4] was under 0.02 nM.
Work on `CNC(=O)c1cc(OC)cc2c(N3CCc4c(cc(Cn5ccnc5)cc4-c4cn(C)nc4C(F)(F)F)C3=O)ccnc12` [Compound B-42] yielded a GI50 [1, 5] of under 20 nM.
Compound `CCc1cc(NC(C)=O)c2nccc(N3CCc4c(cc(Cn5ccnc5)cc4-c4cn(C)nc4C(F)(F)F)C3=O)c2c1` [Compound B-231] has a GI50 [1, 5] of under 20 nM.
For `CCOc1cc2c(N3CCc4c(cc(Cn5ccnc5)cc4-c4cn(C)nc4C(F)(F)F)C3=O)ncnc2cc1OC` [Example 28, 7-((1H-Imidazol-1-yl)methyl)-2-(6-ethoxy-7-methoxyquinazolin-4-yl)-5-(1-methyl-3-(trifluoromethyl)-1H-pyrazol-4-yl)-3,4-dihydroisoquinolin-1(2H)-one], the GI50 [1, 3] was 64 nM and the Ki [2, 4] was under 0.02 nM.
In the case of `COc1cc2nc(N3CCOCC3)nc(N3CCc4c(cc(Cn5ccnc5)cc4-c4cn(C)nc4C(F)(F)F)C3=O)c2cc1OC` [Example 56, 7-((1H-Imidazol-1-yl)methyl)-2-(6,7-dimethoxy-2-morpholinoquinazolin-4-yl)-5-(1-methyl-3-(trifluoromethyl)-1H-pyrazol-4-yl)-3,4-dihydroisoquinolin-1(2H)-one], the GI50 [1, 3] is reported as under 20 nM and the Ki [2, 4] is reported as under 0.02 nM.
For `CCc1cc2c(N3CCc4c(cc(Cn5ccnc5)cc4-c4cn(C)nc4C(F)(F)F)C3=O)cc(C)nc2c(OC)n1` [Example 48, 7-((1H-Imidazol-1-yl)methyl)-2-(6-ethyl-8-methoxy-2-methyl-1,7-naphthyridin-4-yl)-5-(1-methyl-3-(trifluoromethyl)-1H-pyrazol-4-yl)-3,4-dihydroisoquinolin-1(2H)-one], the GI50 [1, 3] was under 20 nM and the Ki [2, 4] was under 0.02 nM.
`COc1cc2nc(C)nc(N3CCc4c(cc(Cn5ccnc5)cc4-c4cc(C)nn4C)C3=O)c2cc1OC` [Example 59, 7-((1H-Imidazol-1-yl)methyl)-2-(6,7-dimethoxy-2-methylquinazolin-4-yl)-5-(1,3-dimethyl-1H-pyrazol-5-yl)-3,4-dihydroisoquinolin-1(2H)-one] was tested, and the GI50 [1, 3] was 90 nM and the Ki [2, 4] was under 0.02 nM.
For `CCOc1cc2ncnc(N3CCc4c(cc(Cn5ccnc5)cc4-c4cn(C)nc4C(F)(F)F)C3=O)c2cc1OCC` [Example 30, 7-((1H-Imidazol-1-yl)methyl)-2-(6,7-diethoxyquinazolin-4-yl)-5-(1-methyl-3-(trifluoromethyl)-1H-pyrazol-4-yl)-3,4-dihydroisoquinolin-1(2H)-one], the GI50 [1, 3] was 47 nM and the Ki [2, 4] was under 0.02 nM.
With `COc1cc2nc(C3CCOCC3)nc(N3CCc4c(cc(Cn5ccnc5)cc4-c4cn(C)nc4C(F)(F)F)C3=O)c2cc1OC` [Example 67, 7-((1H-Imidazol-1-yl)methyl)-2-(6,7-dimethoxy-2-(tetrahydro-2H-pyran-4-yl)quinazolin-4-yl)-5-(1-methyl-3-(trifluoromethyl)-1H-pyrazol-4-yl)-3,4-dihydroisoquinolin-1(2H)-one] the GI50 [1, 3] was under 20 nM and the Ki [2, 4] was 0.025 nM.
For `COc1cc2c(N3CCc4c(cc(Cn5ccnc5)cc4-c4cn(C)nc4C(F)(F)F)C3=O)nc(C)nc2cc1N1CCC1` [Example 54, 7-((1H-Imidazol-1-yl)methyl)-2-(7-(azetidin-1-yl)-6-methoxy-2-methylquinazolin-4-yl)-5-(1-methyl-3-(trifluoromethyl)-1H-pyrazol-4-yl)-3,4-dihydroisoquinolin-1(2H)-one], the GI50 [1, 3] was 81 nM and the Ki [2, 4] was under 0.02 nM.
Work on `COc1cc2nc(C)nc(N3CCc4c(cc(Cn5ccnc5)cc4-c4cn(C)nc4C)C3=O)c2cc1OC` [Example 65, 7-((1H-Imidazol-1-yl)methyl)-2-(6,7-dimethoxy-2-methylquinazolin-4-yl)-5-(1,3-dimethyl-1H-pyrazol-4-yl)-3,4-dihydroisoquinolin-1(2H)-one] yielded a GI50 [1, 3] of 43 nM and a Ki [2, 4] of 0.023 nM.
With `COc1cc2c(N3CCc4c(cc(Cn5ccnc5)cc4-c4cn(C)nc4C(F)(F)F)C3=O)ncnc2cc1F` [Example 32, 7-((1H-Imidazol-1-yl)methyl)-2-(7-fluoro-6-methoxyquinazolin-4-yl)-5-(l-methyl-3-(trifluoromethyl)-1H-pyrazol-4-yl)-3,4-dihydroisoquinolin-1(2H)-one] the GI50 [1, 3] was under 20 nM and the Ki [2, 4] was under 0.02 nM.
`CCc1cc2c(N3CCc4c(cc(Cn5ccnc5)cc4-c4cn(C)nc4C(F)(F)F)C3=O)ccnc2c(OCCOC)n1` [Example 33, 7-((1H-Imidazol-1-yl)methyl)-2-(6-ethyl-8-(2-methoxyethoxy)-1,7-naphthyridin-4-yl)-5-(1-methyl-3-(trifluoromethyl)-1H-pyrazol-4-yl)-3,4-dihydroisoquinolin-1(2H)-one] gave a GI50 [1, 3] of under 20 nM and a Ki [2, 4] of under 0.02 nM.
`COc1cc2nc(C)nc(N3CCc4c(cc(Cn5ccnc5)cc4-c4cc(C(F)(F)F)nn4C)C3=O)c2cc1OC` [Example 61, 7-((1H-Imidazol-1-yl)methyl)-2-(6,7-dimethoxy-2-methylquinazolin-4-yl)-5-(1-methyl-3-(trifluoromethyl)-1H-pyrazol-5-yl)-3,4-dihydroisoquinolin-1(2H)-one] gave a GI50 [1, 3] of 128 nM and a Ki [2, 4] of 0.031 nM.
`CCc1cc(C(=O)NCCN(C)C)c2nccc(N3CCc4c(cc(Cn5ccnc5)cc4-c4cn(C)nc4C(F)(F)F)C3=O)c2c1` [Compound B-166] showed a GI50 [1, 6] of under 20 nM and a Ki ([2]; read-out: Ki for additional WDR5 inhibitor compounds for Inhibition of WDR5 by TR-FRET assay) of 0.029 nM.
`CCc1cc(N)c2nccc(N3CCc4c(cc(Cn5ccnc5)cc4-c4cn(C)nc4C(F)(F)F)C3=O)c2c1` [Compound B-230] was tested, and the GI50 [1, 6] was 54 nM.
